Format in all cases: cell-based
Experiment [1] concerns the target T1, BTK-GFP (Homo sapiens, UniProt Q06187+Q96SW2).
T1 construct: the BTK open reading frame (ORF) was first shuttled from a pcDNA-DEST40-BTK vector (Invitrogen library ID INV_20090504v1); expressed in transfected cells; host or cells: HEK293A cells (Invitrogen R70507), lentiviral transduction with pLenti6-BTK-GFP-Ires-RFP, blasticidin-selected
The experiment in a line: BTK-GFP protein abundance flow cytometry assay in HEK293A cells. Particulars: 24 h; for BTK deg Amax %: % protein remaining at concentration of maximum degradation; for DC50: concentration at which 50% maximal degradation was observed. The protocol: (§1) Compounds of the invention were tested in the following cellular assays. The terms in Table 1 are defined as follows: DC50 refers to the concentration at which 50% maximal degradation was observed; deg Amax is the extent of degradation and the value refers to the % protein remaining at the concentration at which maximum degradation is seen; Prol GI50 refers to the proliferation data and defines the concentration at which 50% growth inhibition was observed compared to the vehicle treated control at the end of the incubation time. TMD8 cells are BTK dependent and OCI-LY3 cells are BTK independent.
BTK-GFP and IKZF3-GFP Protein Abundance Flow Cytometry Assay in HEK293A Cells:
Degradation of BTK or IKZF3 was measured in HEK293A cells (Invitrogen R70507) expressing either BTK-GFP and RFP or IKZF3-GFP and RFP from a stably integrated bicistronic BTK-GFP-iresRFP or IKZF3-GFP-iresRFP construct, respectively. Reduction of the GFP signal measured by flow cytometry served as readout for BTK or IKZF3 degradation after degrader treatment.
Stable HEK293A-BTK-GFP-iresRFP cells were maintained in complete growth medium (DMEM high Glucose+10% FCS+1% L-Glutamine+1% NEAA+1% NaPyr.) with passaging performed twice per week. On Day 0, HEK293A-BTK-GFP-iresRFP or HEK293A-IKZF3-GFP-iresRFP and HEK293A-iresRFP cells were seeded at 10,000 cells/well in a 96-well microtiter plate in 260 μl complete medium. On Day 1, cells were treated in duplicate with 10-point 1:3 dilution series of compound using the HP D300 Digital Dispenser (Tecan). DMSO concentrations were normalized across the plate to 0.1%. On Day 2, after 24 h of incubation at 37° C., treatment media was discarded, cells rinsed with 100 ul/well PBS and then detached using 40 ul trypsin/well for 5 min. Trypsin was neutralized with 100 ul/well PBS+20% FCS). Flow cytometry was performed on the samples using the BD FACS CANTO II (Becton Dickinson). Cell identification was then performed using forward (FSC) vs. side scatter (SSC) plots. Single cell discrimination is performed using SSC-Width (SSC-W) vs. SSC-Height (SSC-H) plots. Median GFP values for 5,000 single cells are used to determine BTK levels. Median GFP values from HEK293A-iresRFP are used as a background signal and thus defining 0% BTK signal. Median GFP values from DMSO treated HEK293A-BTK-GFP-iresRFP or HEK293A-IKZF3-GFP-iresRFP are used to define 100% BTK signal for subsequent DC50 curves (concentration at 50% BTK degradation). GFP and RFP are read in the channels called FITC and PE, respectively.
Concentration response curves plotting relative reduction of the GFP signal (measured by flow cytometry) versus 10 compound concentrations (starting concentration 10 μM, 3 fold dilution steps) of the compounds allowed generation of DC50 values.
(In general: A flow cytometer gives signals particle by particle.)

Experiment [2] relates to TMD8 cells. As to the kind of experiment: Resazurin cell viability assay in DLBCL cells (TMD8). Particulars: TMD8 cells (BTK dependent), 50% growth inhibition, read-out: TMD8 Prol GI50. The protocol: as §1
(§2) Cell Viability Assay in DLBCL (Diffuse Large B-Cell Lymphoma) Cells:
(§3) The effect of the BTK compounds on cell proliferation was measured by a Resazurin (Sigma, #R7017) based cell viability assay. TMD8 (BTK compound sensitive) and OCI-LY3 (BTK compound insensitive) cells were incubated for 72 h at 37° C. and 5% CO2 with the corresponding compound. Resazurin is a non-toxic, cell-permeable substrate that is virtually non-fluorescent. Upon entering living cells, Resazurin (Sigma, #R7017) is reduced to highly fluorescent Resorufin. The metabolic activity was assessed by measuring the fluorescence signal (ex. 530 nm; em. 600 nm).
(§4) TMD8 and OCI-Ly3 cells were seeded at day 0 in triplicates at a cell density of 1×10^4 cells per 150 μl/well in a 96-well plate (Costar #3904). Additional plates were prepared, in order to assess the basal metabolic activity of both cell lines at the beginning of the experiment. For these reference plates, Resazurin (Sigma, #R7017) was added to a final concentration of 13 μg/ml 3 h post seeding and was incubated for 2 h at 37° C. and 5% CO2. Following incubation, the fluorescent signal intensity of the 96-well plates was measured on a Mithras LB940 multimode plate reader at 530/600 nm (Berthold Technologies, Germany).
(§5) In parallel, 3 h post-seeding, test-plates were treated with compound at various concentrations, or with vehicle (DMSO) alone for 3 days. The compound addition to the plates was performed by using a HP D300 digital dispenser (TECAN, Switzerland). The compounds were tested in triplicate, 8-point serial dilution (1:4), with a start concentration of 10 μM for OCI-LY3 and 1 μM for the TMD8 cells, respectively. To assess the relative proliferation of the cells, Resazurin was added to each well directly to the medium to a final concentration of 13 μg/ml. The plates were incubated for 2 h at 37° C. and 5% CO2 to result in a 72 h endpoint. Following incubation, the fluorescent signal intensity of the 96-well plates were measured on a Mithras LB940 multimode plate reader at 530/600 nm (Berthold Technologies, Germany). The formation of Resorufin dye directly correlates with the number of metabolically active cells. For each triplicate treatment the mean and standard deviation were calculated and analyzed via curve fitting software to determine the respective compound concentration resulting in 50% growth inhibition (GI50) values. For each compound GI50 values were typically determined from at least 2 entirely independent experiments.
TMD8 cells were acquired through a license agreement with Tokyo Medical and Dental University, Japan. Cells are cultivated in MEM Alpha (BioConcept, #1-23F01-I, lot. LB04262P) supplemented with 10% FCS (HyClone, GE #SH30066.03, lot AB217603), 2 mM L-Glutamine (BioConcept, #5-10K50-H, lot. LA03467P), 1% Pen/Strep (BioConcept, #4-01F00-H, lot. LB04235P).

Experiment [3] relates to OCI-LY3 cells. The experiment in a line: Resazurin cell viability assay in DLBCL cells (OCI-LY3). Conditions: OCI-LY3 cells (BTK independent), 50% growth inhibition, read-out: OCI-LY3 Prol GI50. The protocol: as §1, §2, §3, §4, §5
OCI-LY3 cells were acquired through a license agreement with University Health Network, Toronto, Canada. Cells are cultivated in RPMI1640 media (Gibco, #61870-010, lot. 1894759), supplemented with 10% FCS (HyClone, GE #SH30066.03, lot AB217603), 2 mM L-Glutamine (BioConcept, #5-10K50-H, lot. LA03467P), 1 mM Sodium Pyruvate (BioConcept, #5-60F00-H, lot. LB10510P), 10 mM HEPES (Gibco, #15630-056, lot. 1854074), 1% Pen/Strep (BioConcept, #4-01F00-H, lot. LB04235P).

This note sets out measurements from patent US11541056B2, “3-hydroxy-N-(3-(7H-pyrrolo[2,3-d]pyrimidin-4-yl)phenyl)pyrrolidine-1-carboxamide derivatives” (NOVARTIS AG, priority 2018, dated 2023).

Structures are written as SMILES. Read-outs that look alike come from different tables or passages of the source.

T1 sequence (Q06187 whole entry): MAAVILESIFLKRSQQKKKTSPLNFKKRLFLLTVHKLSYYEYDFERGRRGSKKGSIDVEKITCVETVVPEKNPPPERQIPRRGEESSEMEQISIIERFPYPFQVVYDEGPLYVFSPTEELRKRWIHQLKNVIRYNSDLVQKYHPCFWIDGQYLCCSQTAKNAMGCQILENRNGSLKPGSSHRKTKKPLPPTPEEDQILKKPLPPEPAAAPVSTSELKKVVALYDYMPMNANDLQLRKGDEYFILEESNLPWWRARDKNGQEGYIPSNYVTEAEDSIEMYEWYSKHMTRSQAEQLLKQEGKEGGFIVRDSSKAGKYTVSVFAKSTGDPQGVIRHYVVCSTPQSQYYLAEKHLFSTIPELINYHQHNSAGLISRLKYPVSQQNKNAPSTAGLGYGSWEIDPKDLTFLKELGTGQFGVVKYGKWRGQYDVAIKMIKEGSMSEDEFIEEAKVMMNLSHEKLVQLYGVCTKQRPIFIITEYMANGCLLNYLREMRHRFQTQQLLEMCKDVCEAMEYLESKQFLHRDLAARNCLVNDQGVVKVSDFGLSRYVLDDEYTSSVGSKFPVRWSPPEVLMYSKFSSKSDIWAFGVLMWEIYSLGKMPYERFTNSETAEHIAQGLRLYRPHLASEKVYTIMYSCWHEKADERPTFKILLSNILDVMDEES
T1 sequence (Q96SW2 whole entry): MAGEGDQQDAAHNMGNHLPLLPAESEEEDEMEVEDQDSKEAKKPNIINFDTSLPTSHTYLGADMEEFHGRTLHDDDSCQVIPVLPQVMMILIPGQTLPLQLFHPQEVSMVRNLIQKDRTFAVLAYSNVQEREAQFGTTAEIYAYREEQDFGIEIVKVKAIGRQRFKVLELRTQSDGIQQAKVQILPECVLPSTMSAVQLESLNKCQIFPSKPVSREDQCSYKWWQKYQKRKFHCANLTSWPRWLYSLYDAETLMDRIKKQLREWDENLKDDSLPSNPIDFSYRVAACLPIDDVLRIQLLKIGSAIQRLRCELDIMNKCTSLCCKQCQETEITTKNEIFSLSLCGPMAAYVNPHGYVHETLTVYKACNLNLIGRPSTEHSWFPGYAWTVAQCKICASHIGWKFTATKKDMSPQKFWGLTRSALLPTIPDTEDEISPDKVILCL
T1 sequence (Q16531 whole entry partner): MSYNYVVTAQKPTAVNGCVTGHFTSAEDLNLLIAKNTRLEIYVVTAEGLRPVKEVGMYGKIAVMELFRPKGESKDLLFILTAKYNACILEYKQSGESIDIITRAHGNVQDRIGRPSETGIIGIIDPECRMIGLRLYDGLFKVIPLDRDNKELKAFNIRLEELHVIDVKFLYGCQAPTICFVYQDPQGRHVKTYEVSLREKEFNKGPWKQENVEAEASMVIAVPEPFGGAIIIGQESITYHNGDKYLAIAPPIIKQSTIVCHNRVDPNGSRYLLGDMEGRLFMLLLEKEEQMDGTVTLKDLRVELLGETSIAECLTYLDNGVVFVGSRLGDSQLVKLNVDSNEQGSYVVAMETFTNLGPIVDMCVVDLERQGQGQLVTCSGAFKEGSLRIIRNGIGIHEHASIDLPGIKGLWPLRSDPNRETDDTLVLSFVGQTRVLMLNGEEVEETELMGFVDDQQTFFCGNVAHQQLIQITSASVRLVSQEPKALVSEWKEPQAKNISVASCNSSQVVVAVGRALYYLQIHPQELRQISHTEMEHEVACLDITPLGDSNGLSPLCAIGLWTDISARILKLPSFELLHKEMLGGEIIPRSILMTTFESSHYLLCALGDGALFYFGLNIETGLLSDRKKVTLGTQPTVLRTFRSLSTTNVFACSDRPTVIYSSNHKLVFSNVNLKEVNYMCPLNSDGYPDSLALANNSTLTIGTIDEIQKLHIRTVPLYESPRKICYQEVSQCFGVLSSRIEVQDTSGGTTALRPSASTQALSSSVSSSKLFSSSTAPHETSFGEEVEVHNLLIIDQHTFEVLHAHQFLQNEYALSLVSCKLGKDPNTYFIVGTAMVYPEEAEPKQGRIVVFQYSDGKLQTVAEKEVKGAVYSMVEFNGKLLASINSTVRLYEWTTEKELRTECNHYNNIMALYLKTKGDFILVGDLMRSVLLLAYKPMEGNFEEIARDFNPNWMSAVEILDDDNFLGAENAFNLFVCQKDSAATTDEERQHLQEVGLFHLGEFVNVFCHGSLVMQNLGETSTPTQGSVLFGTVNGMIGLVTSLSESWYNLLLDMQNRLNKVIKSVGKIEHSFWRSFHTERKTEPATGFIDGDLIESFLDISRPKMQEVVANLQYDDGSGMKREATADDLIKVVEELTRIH

Turning to `COc1ccc(C(=O)N2CCC(CCN3CCC(OCc4ccc(-c5cc6c(-c7cc(F)cc(NC(=O)N8CC(O)C(CC(C)C)C8)c7C)ncnc6[nH]5)cc4)CC3)CC2)cc1N1CCC(=O)NC1=O` (racemic) [Compound 4, (cis-rac)-N-(3-(6-(4-(((1-(2-(1-(3-(2,4-Dioxotetrahydropyrimidin-1 (2H)-yl)-4-methoxybenzoyl)piperidin-4-yl)ethyl)piperidin-4-yl)oxy)methyl)phenyl)-7H-pyrrolo[2,3-d]pyrimidin-4-yl)-5-fluoro-2-methylphenyl)-3-hydroxy-4-isobutylpyrrolidine-1-carboxamide], in experiment [1], the “BTK deg Amax %” value was found to be 1.9% and the 50% degradation concentration (DC50) (commonly the midpoint of the concentration-degradation curve) was found to be 1.5 nM. The concentration for 50% growth inhibition (GI50) (commonly the concentration at which growth is held to half of that of the control) in experiment [2] (Homo sapiens, TMD8, 72 h) was 0.34 nM. In addition, in experiment [3] (Homo sapiens, OCI-Ly3, 72 h), the GI50 was found to be 8220 nM.

`COc1ccc(C(=O)N2CCC(CN3CCN(Cc4ccc(-c5cc6c(-c7cc(F)cc(NC(=O)N8CC(O)C(CC(C)C)C8)c7C)ncnc6[nH]5)cc4)CC3)CC2)cc1N1CCC(=O)NC1=O` (racemic) [Compound 9, (cis-rac)-N-(3-(6-(4-((4-((1-(3-(2,4-Dioxotetrahydropyrimidin-1 (2H)-yl)-4-methoxybenzoyl)piperidin-4-yl)methyl)piperazin-1-yl)methyl)phenyl)-7H-pyrrolo[2,3-d]pyrimidin-4-yl)-5-fluoro-2-methylphenyl)-3-hydroxy-4-isobutylpyrrolidine-1-carboxamide]: in experiment [1], the “BTK deg Amax %” value was 6.3% and the half-maximal degradation concentration (DC50) turned out to be 1.7 nM. Moreover, the GI50 in experiment [2] (Homo sapiens, TMD8, 72 h) worked out at 0.75 nM. For the same compound, the GI50 in experiment [3] (Homo sapiens, OCI-Ly3, 72 h) came to 7150 nM.

As for `COc1ccc(C(=O)N2CCC3(CCN(Cc4ccc(-c5cc6c(-c7cc(F)cc(NC(=O)N8CC(O)C(CC(C)C)C8)c7C)ncnc6[nH]5)cc4)CC3)CC2)cc1N1CCC(=O)NC1=O` (racemic) [Compound 23, (cis-rac)-N-(3-(6-(4-((9-(3-(2,4-Dioxotetrahydropyrimidin-1(2H)-yl)-4-methoxybenzoyl)-3,9-diazaspiro[5.5]undecan-3-yl)methyl)phenyl)-7H-pyrrolo[2,3-d]pyrimidin-4-yl)-5-fluoro-2-methylphenyl)-3-hydroxy-4-isobutylpyrrolidine-1-carboxamide], in experiment [1], the “BTK deg Amax %” value is listed as 3.3% and the DC50 worked out at 6.1 nM. Further, in experiment [2] (72 h), the GI50 was 2.36 nM. Moreover, in experiment [3] (72 h), the 50% growth inhibitory concentration (GI50) was more than 10000 nM.

On to `COc1ccc(C(=O)N2CCC(CCN3CCC(Oc4ccc(-c5cc6c(-c7cc(F)cc(NC(=O)N8C[C@H](CC(C)C)[C@@H](O)C8)c7C)ncnc6[nH]5)cc4)CC3)CC2)cc1N1CCC(=O)NC1=O` [Compound 3, (3R,4S)—N-(3-(6-(4-((1-(2-(1-(3-(2,4-Dioxotetrahydropyrimidin-1(2H)-yl)-4-methoxybenzoyl)piperidin-4-yl)ethyl)piperidin-4-yl)oxy)phenyl)-7H-pyrrolo[2,3-d]pyrimidin-4-yl)-5-fluoro-2-methylphenyl)-3-hydroxy-4-isobutylpyrrolidine-1-carboxamide], for which, in experiment [1], the “BTK deg Amax %” value is 3% and it took 0.8 nM to reach half-maximal degradation (DC50). Further, the 50% growth inhibitory concentration (GI50) in experiment [2] (Homo sapiens, TMD8, 72 h) worked out at 0.19 nM. For the same compound, the GI50 in experiment [3] (Homo sapiens, OCI-Ly3, 72 h) is 4480 nM.

With `COc1ccc(C(=O)N2CCC3(CCN(CCc4ccc(-c5cc6c(-c7cc(F)cc(NC(=O)N8C[C@@H](CC(C)C)[C@@H](O)C8)c7C)ncnc6[nH]5)cc4)CC3)CC2)cc1N1CCC(=O)NC1=O` [Compound 7, (3R,4R)—N-(3-(6-(4-(2-(9-(3-(2,4-Dioxotetrahydropyrimidin-1(2H)-yl)-4-methoxybenzoyl)-3,9-diazaspiro[5.5]undecan-3-yl)ethyl)phenyl)-7H-pyrrolo[2,3-d]pyrimidin-4-yl)-5-fluoro-2-methylphenyl)-3-hydroxy-4-isobutylpyrrolidine-1-carboxamide], in experiment [1], the “BTK deg Amax %” value turned out to be 3.7% and the half-maximal degradation concentration (DC50) is 1.5 nM. Also, the concentration for 50% growth inhibition (GI50) in experiment [2] (Homo sapiens, TMD8, 72 h) was 0.28 nM. In addition, the GI50 in experiment [3] (Homo sapiens, OCI-Ly3, 72 h) was more than 10000 nM.

With `COc1ccc(C(=O)N2CCC(CN3CCC(COc4ccc(-c5cc6c(-c7cc(F)cc(NC(=O)N8C[C@H](CC(C)C)[C@@H](O)C8)c7C)ncnc6[nH]5)cc4)CC3)CC2)cc1N1CCC(=O)NC1=O` [Compound 14, (3R,4S)—N-(3-(6-(4-((1-((1-(3-(2,4-Dioxotetrahydropyrimidin-1 (2H)-yl)-4-methoxybenzoyl)piperidin-4-yl)methyl)piperidin-4-yl)methoxy)phenyl)-7H-pyrrolo[2,3-d]pyrimidin-4-yl)-5-fluoro-2-methylphenyl)-3-hydroxy-4-isobutylpyrrolidine-1-carboxamide], in experiment [1], the “BTK deg Amax %” value was 3.4% and the 50% degradation concentration (DC50) was found to be 0.7 nM. Further, in experiment [2] (Homo sapiens, TMD8, 72 h), the 50% growth inhibitory concentration (GI50) was 0.24 nM. For the same compound, in experiment [3] (Homo sapiens, OCI-Ly3, 72 h), the GI50 was 3820 nM.
